Assay results taken from the supplement of paper PMC11061612.

Columns and labels:
[1] = system: PFSK-1 (Other Solid Carcinomas); test: Bliss excess, mean over the matrix (fraction); higher = more synergy
Summary of the method: (§1)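 Bliss excess equals the observed combination effect minus the expected value EA + EB − EA·EB, where EA and EB are the effects of each agent alone. Combination Emax is the second-highest inhibition within the matrix. Inhibition was scaled from CellTiter-Glo 2.0 luminescence, with 0 set by vehicle wells and 1 by blank wells, after 72 hours of two-drug dosing of cells plated in 1536-well plates.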

GOTO (Neuroblastoma) [2] = test: as above
Summary of the method: as §1

NB7 (Neuroblastoma) [3] = test: as above
Summary of the method: as §1

[4] = system: VMRC-LCD (Lung Adenocarcinoma); test: as above
Summary of the method: as §1

[5] = system: KYSE-50 (Esophageal Squamous Cell Carcinoma); test: as above
Summary of the method: as §1

A704 (Kidney Carcinoma) = test: as above
Summary of the method: as §1

[6] = system: EMC-BAC-2 (Non-Small Cell Lung Carcinoma); test: as above
Summary of the method: as §1

GOTO (Neuroblastoma) [7] = test: combination Emax (second highest fraction inhibited in the dose matrix, 72 h); higher = more inhibition; extreme values may be limits of the assay
Summary of the method: as §1

EW-13 (Ewing's Sarcoma) = test: as above
Summary of the method: as §1

[8] = system: OCUM-1 (Gastric Carcinoma); test: as above
Summary of the method: as §1

[9] = system: NCI-H2405 (Lung Adenocarcinoma); test: as above
Summary of the method: as §1

NB7 (Neuroblastoma) [10] = test: as above
Summary of the method: as §1

[11] = system: TGBC11TKB (Gastric Carcinoma); test: as above
Summary of the method: as §1

[12] = system: VMRC-LCD (Lung Adenocarcinoma); test: as above
Summary of the method: as §1

[13] = system: DG-75 (Burkitt's Lymphoma); test: as above
Summary of the method: as §1

[14] = system: HuP-T3 (Pancreatic Carcinoma); test: as above
Summary of the method: as §1

[15] = system: NCI-H513 (Other Solid Carcinomas); test: as above
Summary of the method: as §1

[16] = system: KYSE-50 (Esophageal Squamous Cell Carcinoma); test: as above
Summary of the method: as §1

[17] = system: MFE-319 (Endometrial Carcinoma); test: as above
Summary of the method: as §1

IMR-5 (Neuroblastoma) = test: as above
Summary of the method: as §1

| SMILES | Bliss excess [1] | Bliss excess (GOTO (Neuroblastoma) [2]) | Bliss excess (NB7 (Neuroblastoma) [3]) | Bliss excess [4] | Bliss excess [5] | Bliss excess (A704 (Kidney Carcinoma)) | Bliss excess [6] | combination Emax (GOTO (Neuroblastoma) [7]) | combination Emax (EW-13 (Ewing's Sarcoma)) | combination Emax [8] | combination Emax [9] | combination Emax (NB7 (Neuroblastoma) [10]) | combination Emax [11] | combination Emax [12] | combination Emax [13] | combination Emax [14] | combination Emax [15] | combination Emax [16] | combination Emax [17] | combination Emax (IMR-5 (Neuroblastoma)) |
| --- | --- | --- | --- | --- | --- | --- | --- | --- | --- | --- | --- | --- | --- | --- | --- | --- | --- | --- | --- | --- |
| COc1nnc2ccc(N3CCC(c4ccc(OCCN5CCN(C)C(=O)[C@H]5C)cc4)CC3)nn12 [AZD5153] + C[C@@H]1COCCN1C2=NC(=NC(=C2)C3(CC3)[S@](=N)(=O)C)C4=C5C=CNC5=NC=C4 [AZD6738] (first compound max 1 µM, 7x7, partner max 10 µM) | -0.0115 | -0.0422 | -0.0111 | 0.0235 | 0.0172 | -0.0278 | 0.0722 | 0.979 | 0.831 | 0.641 | 0.511 | 0.589 | 0.801 | 0.921 | 0.909 | 0.705 | 0.523 | 0.804 | 0.785 | 1 |
| CS(=O)(=O)CCNCc1ccc(-c2ccc3ncnc(Nc4ccc(OCc5cccc(F)c5)c(Cl)c4)c3c2)o1 [Lapatinib] + C[C@@H](Oc1cc(-c2cnn(C3CCNCC3)c2)cnc1N)c1c(Cl)ccc(F)c1Cl [Crizotinib] (first compound max 10 µM, 7x7, partner max 10 µM) | -0.0546 | -0.0499 | -0.0172 | -0.0246 | -0.0352 | -0.122 | -0.021 | 1 | 0.285 | 0.596 | 0.193 | 0.565 | 0.622 | 0.711 | 0.92 | 0.579 | 0.557 | 0.93 | 0.511 | 0.976 |
| COc1nnc2ccc(N3CCC(c4ccc(OCCN5CCN(C)C(=O)[C@H]5C)cc4)CC3)nn12 [AZD5153] + CC1(C)CCC(CN2CCN(c3ccc(C(=O)NS(=O)(=O)c4ccc(NCC5CCOCC5)c([N+](=O)[O-])c4)c(Oc4cnc5[nH]ccc5c4)c3)CC2)=C(c2ccc(Cl)cc2)C1 [Venetoclax] (first compound max 1 µM, 7x7, partner max 1 µM) | -0.0853 | -0.065 | -0.0287 | -0.063 | -0.0591 | -0.0016 | -0.101 | 0.813 | 0.481 | 0.567 | 0.319 | 0.37 | 0.324 | 0.489 | 0.887 | 0.517 | 0.358 | 0.501 | 0.324 | 0.885 |
| Cc1c2c(nn1C)CSCc1cc(n(C)n1)CSc1cc(c3ccccc3c1)OCCCc1c(C(=O)O)n(C)c3c-2c(Cl)ccc13 [AZD5991] + CN(C)CCCOc1ccc(-c2ccc3ncc4c(c3c2)n(C2CCOCC2)c(=O)n4C)cn1 [AZD0156] (first compound max 1 µM, 7x7, partner max 1 µM) | 0.0228 | -0.0418 | -0.0178 | 0.0165 | -0.0031 | -0.0475 | -0.0313 | 0.757 | 0.401 | 0.113 | 0.228 | 0.499 | 0.476 | 0.2 | 0.395 | 0.213 | 0.228 | 0.292 | 0.78 | 0.985 |
| CC(=O)c1c(C)c2cnc(Nc3ccc(N4CCNCC4)cn3)nc2n(C2CCCC2)c1=O [Palbociclib] + Cc1c2c(nn1C)CSCc1cc(n(C)n1)CSc1cc(c3ccccc3c1)OCCCc1c(C(=O)O)n(C)c3c-2c(Cl)ccc13 [AZD5991] (first compound max 10 µM, 7x7, partner max 1 µM) | -0.0471 | 0.0483 | 0.054 | -0.0288 | -0.0658 | -0.0629 | -0.0991 | 0.802 | 0.488 | 0.285 | 0.269 | 0.576 | 0.355 | 0.337 | 0.717 | 0.266 | 0.171 | 0.353 | 0.887 | 0.902 |
| Cn1cnc2c(F)c(Nc3ccc(Br)cc3Cl)c(C(=O)NOCCO)cc21 [Selumetinib] + C[C@@H]1COCCN1C2=NC(=NC(=C2)C3(CC3)[S@](=N)(=O)C)C4=C5C=CNC5=NC=C4 [AZD6738] (first compound max 10 µM, 7x7, partner max 10 µM) | -0.0535 | 0.0043 | -0.0257 | -0.0546 | 0.0013 | -0.039 | 0.0202 | 0.946 | 0.623 | 0.951 | 0.401 | 0.597 | 0.854 | 0.732 | 0.807 | 0.517 | 0.416 | 0.573 | 0.752 | 1 |
